Results taken from patent US5219879A, “Heterocyclic steroid compounds” (Du Pont Merck Pharmaceutical Company, priority 1991, dated 1993).

Tested on: 3-Hydroxy-3-Methylglutaryl Coenzyme A Reductase (HMGR)
Experiment: 3-Hydroxy-3-Methylglutaryl Coenzyme A Reductase (HMGR) Suppression Assay
Type: cell-based, Chinese Hamster (CHO cells)
Conditions: CHO cells, 6 hr. at 37°; read-out: IC50 (amount of compound required to suppress HMGR activity by 50% relative to controls)
Protocol: The ability of the compounds of Formula I to suppress the activity of HMGR, the rate limiting enzyme of cholesterol biosynthesis, was tested as follows.
Chinese Hamster Ovary (CHO) cells were divided twice weekly and were maintained in McCoy's 5A medium supplemented with 1% carbosil delipidated Fetal Bovine System (FBS) (obtained from Gibco Laboratories, Chagrin Falls, Ohio). Cells were harvested during the logarithmic phase of growth and cell cultures were prepared by adding […] cells to each well in a 24 well cluster dish (obtained from Costar, Data Packaging Corp., Cambridge, Mass.) employing 1 ml of the above medium per each well. […] Control cells were treated in an identical fashion to those which received test compound, except they were incubated with the BSA and ethanol suspension only.
Specifically, the medium in each well was aspirated and the cells rinsed with a 50 mM solution of phosphate buffered saline (PBS). One ml of 30 mg/ml of digitonin in CSK buffer (prepared using 10 mM Pipes [piperazine-N,N'-bis (2-ethansulfonic) acid], 100 mM KCl, 2.5 mM MgCl2, 300 mM sucrose, 1 mM EGTA, pH 6.8) was added to each well and incubated for 10 min. at 22° to permeabilize the cells. The buffer was carefully aspirated and the wells were rinsed twice each time with 1 ml of PBS. HMGR activity was measured directly by adding 75 ml of PIB buffer (50 mM potassium phosphate, 1 mM Na2 EDTA, 10 mM dithiothreitol, pH 7.4) to each well and incubating the cells for 30 minutes at 37° as described above. […] The assay mixture was incubated for 30 min. at 37° and terminated by the addition of 70 ml of [^3 H]-mevalonicacid (35,000 DPM/assay), 0.15 mg/ml in 3N HCl.
The reaction was left to lactonize for an additional 30 min. at 37° or overnight at room temperature.
Reaction products were separated by thin layer chromatography on silica gel G (obtained from Analtech, Newark, Del.) developed in an unsaturated environment with acetone:benzene (3:2, v:v). The band corresponding to mevalonolactone was identified by exposure to iodine vapor and was scraped into counting vials. The extent of conversion of starting substrate, HMG-CoA, to mevalonic acid was determined by liquid scintillation counting in Biofluor (obtained from New England Nuclear, Boston, Mass.). Corrections for recovery and blank values were made for each sample. Protein determinations were made by Bio-Rad (Bio-Rad, Richmond, Calif.) dye binding assay according to the manufacturer's instruction using bovine serum albumin as standard. Cellular protein was solubilized from culture dishes by the addition of 20 μl of 16N KOH and assayed directly for protein amount. Suppression values are expressed as the amount of compound required to suppress HMGR activity by 50% relative to that of the controls.

First: CC(C)CCC[C@@H](C)[C@H]1CO[C@H]2C3=C(CC[C@]12C)[C@@]1(C)CC[C@H](O)C(C)(C)[C@@H]1CC3 [Example 2, 4,4-Dimethyl-15-oxa-5a-cholest-8-en-3b-ol]
Second: CC(C)CCC[C@@H](C)[C@H]1CCO[C@H]2C3=C(CC[C@]12C)[C@@]1(C)CC[C@H](O)C(C)(C)[C@@H]1CC3 [Example 673, 4,4-dimethyl-14a-Oxa-D-homo-5a-cholest-8-en-3b-ol]
The IC50 of the first is 4.9-fold lower: 0.3 µM for the first, 1.46 µM for the second. The first is the more potent here.

Compared with `C=C[C@@]12OC[C@H]([C@H](C)CCCC(C)C)[C@@]1(C)CCC1=C2CC[C@H]2C(C)(C)[C@@H](O)CC[C@]12C` [Example 3, 4,4-Dimethyl-15-oxa-14a-vinyl-5a-cholest-8-en-3b-ol], `CC(C)CCC[C@@H](C)[C@H]1CO[C@@]2(C=O)C3=C(CC[C@]12C)[C@@]1(C)CC[C@H](O)C(C)(C)[C@@H]1CC3` [Example 7, 15-Oxa 32-oxodihydrolanosterol] is 4.2-fold lower in IC50: 0.17 µM for the first, 0.04 µM for the second.

`CC(=O)O[C@H]1CC[C@]2(C)C3=C(CC[C@H]2C1(C)C)[C@]1(C=O)OC[C@H]([C@H](C)CCCC(C)C)[C@@]1(C)CC3` [Example 6, 3b-Acetoxy-15-oxa-32-oxolanost-8-ene] and `CC(C)CCC[C@@H](C)[C@H]1CO[C@@]2(C=O)C3=C(CC[C@]12C)[C@@]1(C)CCC(=O)C(C)(C)[C@@H]1CC3` [Example 386] are within 1.5-fold of each other in IC50: 0.075 µM for the first, 0.08 µM for the second.

Compared with `CC(C)CCC[C@@H](C)[C@H]1CO[C@@]2(CO)C3=C(CC[C@]12C)[C@@]1(C)CC[C@H](O)C(C)(C)[C@@H]1CC3` [Example 8, 15-Oxa-lanost-8-ene-3b,32-diol], `CC(C)CCC[C@@H](C)[C@H]1CO[C@@]2(C=NO)C3=C(CC[C@]12C)[C@@]1(C)CC[C@H](O)C(C)(C)[C@@H]1CC3` [Example 10, 3b-Hydroxy-15-oxa-lanost-8-en-32-aldoxime] is 12-fold lower in IC50: 2.5 µM for the first, 0.2 µM for the second.

First: CC(C)CCC[C@@H](C)[C@H]1CO[C@@]2(C)C3=C(CC[C@]12C)[C@@]1(C)CC[C@H](O)C[C@@H]1CC3 [Example 13, 14a-Methyl-15-oxa-5a-cholest-8-en-3b-ol]
Second: CC(C)CCC[C@@H](C)[C@H]1CO[C@@]2(C=O)C3=C(CC[C@]12C)[C@@]1(C)CC[C@H](O)C[C@@H]1CC3 [Example 18]
The IC50 of the first is 8.3-fold higher: 2.5 µM for the first, 0.3 µM for the second. The second is the more potent here.

`CC(C)CCC[C@@H](C)[C@H]1CO[C@@]2([C@H](O)CO)C3=C(CC[C@]12C)[C@@]1(C)CC[C@H](O)C[C@@H]1CC3` [Example 16] and `CC(C)CCC[C@@H](C)[C@H]1CO[C@@]2([C@@H](O)CO)C3=C(CC[C@]12C)[C@@]1(C)CC[C@H](O)C[C@@H]1CC3` [Example 17] are within 1.5-fold of each other in IC50: 2.5 µM for the first, 1.95 µM for the second.

`CC(C)CCC[C@@H](C)[C@H]1CO[C@@]2(CO)C3=C(CC[C@]12C)[C@@]1(C)CC[C@H](O)C[C@@H]1CC3` [Example 19] and `CC(C)CCC[C@@H](C)[C@H]1CCO[C@@]2(C=O)C3=C(CC[C@]12C)[C@@]1(C)CC[C@H](O)C(C)(C)[C@@H]1CC3` [Example 677, 14a-Oxa-32-oxo-D-homo-dihydrolanosterol] are within 1.5-fold of each other in IC50: 2.08 µM for the first, 2.5 µM for the second.

Going from `CC(C)CCC[C@@H](C)[C@H]1CS[C@@]2(C)C3=C(CC[C@]12C)[C@@]1(C)CC[C@H](O)C(C)(C)[C@@H]1CC3` [Example 857] to `CC(C)CCC[C@@H](C)[C@H]1CCS[C@@]2(C)C3=C(CC[C@]12C)[C@@]1(C)CC[C@H](O)C(C)(C)[C@@H]1CC3` [Example 1508], the IC50 rises from 0.06 µM to 1.25 µM (21-fold).

First: CC(C)CCC[C@@H](C)[C@H]1CS[C@H]2C3=C(CC[C@]12C)[C@@]1(C)CC[C@H](O)C(C)(C)[C@@H]1CC3 [Example 858, 4,4-Dimethyl-15-thia-5a-cholest-8-en-3b-ol]
Second: CC(C)CCC[C@@H](C)[C@H]1CCS[C@H]2C3=C(CC[C@]12C)[C@@]1(C)CC[C@H](O)C(C)(C)[C@@H]1CC3 [Example 1509, 4,4-Dimethyl-15-thia-D-homo-5a-cholest-8-en-3b-ol]
The IC50 of the first is 9.1-fold lower: 0.55 µM for the first, 5 µM for the second.

Compared with `C=C[C@@]12SC[C@H]([C@H](C)CCCC(C)C)[C@@]1(C)CCC1=C2CC[C@H]2C(C)(C)[C@@H](O)CC[C@]12C` [Example 859, 4,4-Dimethyl-15-thia-14a-vinyl-5a-cholest-8-en-3b-ol], `CC(C)CCC[C@@H](C)[C@H]1C[S+]([O-])[C@@]2(C)C3=C(CC[C@]12C)[C@@]1(C)CC[C@H](O)C(C)(C)[C@@H]1CC3` (some centres unmarked) [Example 1303] is 5-fold higher in IC50: 0.06 µM for the first, 0.3 µM for the second.

Same assay, conditions: CHO cells, tested under these same conditions

With `CC(C)CCC[C@@H](C)[C@H]1CC[C@H]2[C@@H]3CC=C4C[C@@H](O)CC[C@]4(C)[C@H]3CC[C@]12C` [cholesterol, reference compound] the “effect on measured HMGR activity” value was “without effect”.
With `CC(C)CCC[C@@H](C)[C@H]1CC[C@@]2(C)C3=C(CC[C@]12C)[C@@]1(C)CC[C@H](O)C(C)(C)[C@@H]1CC3` [lanost-8-en-3b-ol, reference compound] the “effect on measured HMGR activity” value was “without effect”.
In the case of `CC(C)=CCC[C@@H](C)[C@H]1CC[C@@]2(C)C3=C(CC[C@]12C)[C@@]1(C)CC[C@H](O)C(C)(C)[C@@H]1CC3` [lanosta-8,24-diene-3b-ol, reference compound], the “effect on measured HMGR activity” value is reported as “without effect”.

Tested on: cholesterol biosynthesis pathway
Experiment: Assay of 14C-Acetate Incorporation into the Biosynthesis of Cholesterol (HepG2 cells)
Type: cell-based
Conditions: Homo sapiens, 22 hours with test compound, then 14C-acetate for additional 2 hours, read-out: IC50, inhibition of the incorporation of 14C-acetate into the cholesterol biosynthesis pathway
Protocol: The HepG2 cells (a human hepatoma cell line) used in this example were obtained from the American Type Culture Collection (ATCC, Rockville, Md.). They were maintained in Dulbecco's Modified Eagles Medium and Ham's F12 Medium (1:1) supplemented with 10% heat inactivated Fetal Bovine serum, […] Herpes, 1 mM sodium pyruvate, 1×Non-essential Amino Acids (Gibco) and 2 mM L-glutamine.
The cells were harvested by washing cultures with 10 ml Hank's Balanced Salt Solution (2×) and incubating with 0.125% Trypsin in Versene (0.02% EDTA) for approximately one minute. After the cells are visibly rounded and loosened from the flask, 9 ml of the above medium is added. The cells are transferred to a […] culture dish and syringed up and down through a 20 gauge needle to break up aggregated clumps of cells. Cell cultures are plated at 0.1×10^6 /ml and 0.075×10^6 /ml in two 24 well plates, respectively, aliquoting 1 ml cells/well. The cells are allowed to attach for 24 hours (48 hours for the lower density plate) before washing 2× with HBSS and refed with 1 ml of the above medium with 1% Cabosil delipidated serum instead of Fetal Bovine Serum. The cells are treated with the test compounds after 24 hours of exposure to the delipidated serum media.
Chemicals are routinely prepared as a 10 mM solution in 100% ethanol or dimethyl sulfoxide (DMSO). All test compounds are added at 50 μM, 25 μM, 10 μM, 1 μM at a final concentration of 0.45% solvent, 0.25% Bovine Serum Albumin (BSA) suspension per well. The solvent BSA is sonicated for 10 seconds to ensure maximum solubilization before addition to the cells. Control wells receive solvent/BSA at the same concentrations as the drug treated cultures. […]
The eluted sterols are dried under nitrogen gas and resuspended in 150 μL ethanol. […] The samples are counted on the dual label ^3 H:^14 C program on the Beckman scintillation counter Model LS 7800.
The incorporation of both radiolabeled precursors into sterols is compared between the treated and non-treated (control) cultures and expressed as "% control" for each precursor. […]

Going from `C=C[C@@]12OC[C@H]([C@H](C)/C=C/[C@H](C)C(C)C)[C@@]1(C)CCC1=C2CC[C@H]2C(C)(C)[C@@H](O)CC[C@]12C` [Example 28 (Compound 78), (22E)-4,4-Dimethyl-15-oxa-14α-vinylergosta-8,22-dien-3β-ol] to `C=C[C@@]12OC[C@H]([C@H](C)/C=C/[C@H](C)C(C)C)[C@@]1(C)CCC1=C2CC[C@H]2C[C@@H](O)CC[C@]12C` [Example 29 (Compound 80), (22E)-15-Oxa-14α-vinyl-ergosta-8,22-dien-3β-ol], the IC50 rises from 0.05 µM to greater than 50 µM. The first is the more potent here.

In the case of `CC[C@@]12OC[C@H]([C@H](C)CC[C@H](C)C(C)C)[C@@]1(C)CCC1=C2CC[C@H]2C[C@@H](O)CC[C@]12C` [Example 30 (Compound 81), 14α-Ethyl-15-oxa-ergost-8-en-3β-ol], the IC50 is reported as 0.6 µM.
